# According to US20240082211A1, “SOLUBLE EPOXIDE HYDROLASE AS A TARGET FOR OCULAR DISEASES” (Indiana University Research and Technology Corporation, priority 2017, published 2024):
# Key:
# [1] = molecular target: T1, sEH activity in L-CNV eye tissue homogenates (Mus musculus, UniProt P34914); assay: Tissue-based sEH activity assay using trans-stilbene oxide; assay type: biochemical; settings: 20 μM, 3 days post-laser-treatment, trans-stilbene oxide substrate
# T1 construct: from tissue; host or cells: mouse eye homogenate (C57BL/6J, L-CNV), 100,000 x g supernatant
# T1 sequence (P34914 1-554): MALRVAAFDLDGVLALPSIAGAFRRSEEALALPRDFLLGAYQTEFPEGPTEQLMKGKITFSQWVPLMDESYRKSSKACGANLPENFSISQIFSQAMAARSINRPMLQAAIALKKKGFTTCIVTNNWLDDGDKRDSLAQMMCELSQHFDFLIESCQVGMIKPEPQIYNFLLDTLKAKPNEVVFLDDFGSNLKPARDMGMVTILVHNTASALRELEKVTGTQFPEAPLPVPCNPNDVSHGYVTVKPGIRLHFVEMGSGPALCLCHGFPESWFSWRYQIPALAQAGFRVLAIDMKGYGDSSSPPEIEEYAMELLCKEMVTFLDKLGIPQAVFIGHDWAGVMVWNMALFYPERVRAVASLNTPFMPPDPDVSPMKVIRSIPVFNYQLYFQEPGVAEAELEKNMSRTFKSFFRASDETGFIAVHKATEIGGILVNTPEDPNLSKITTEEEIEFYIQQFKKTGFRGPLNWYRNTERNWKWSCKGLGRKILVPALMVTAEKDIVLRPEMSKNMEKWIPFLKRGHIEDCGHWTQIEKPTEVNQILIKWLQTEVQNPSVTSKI
# Protocol: The sEH activity in tissue homogenates was assayed using trans-stilbene oxide (t-SO) as substrate. The assay is based on the hydrolysis of t-SO that is tracked as a decrease in the absorbance at 230 nm. L-CNV was induced as described above. After 3 days, enucleated eyes from both untreated and L-CNV mice were homogenized in 0.2 M sodium phosphate buffer, pH 7.4. To remove microsomal epoxide hydrolase and lenses, tissue extracts were centrifuged at 100,000×g for 30 minutes at 4° C. After protein estimation, 100 μL of tissue homogenates (100 μg/mL) and 98 μL of SH-11037 or 7 dissolved in DMSO/buffer (final 1% (v/v) DMSO) were added to a UV-transparent 96-well plate. After 5 minutes' incubation at room temperature, 2 μL of t-SO in ethanol (100 μM final concentration) was added to assay wells to initiate the reaction. The absorbance was read at 230 nm for 20 minutes. sEH activity was determined as follows:
# sEH Activity=[(A0−A20)−(B0−B20)]/mg of protein in a reaction
# Where A0 and A20 are absorbance of test wells read at 230 nm at time 0 and 20 minutes respectively, and B0 and B20 are absorbance of background wells read at 230 nm at time 0 and 20 minutes.
# sEH = assay: Lipid profiling of retina/choroid in L-CNV mice (19,20-EDP/DHDP ratio as sEH activity in vivo); design: species or system mouse; settings: 10 μM intravitreal, 3 days post-laser, vs vehicle treated controls
# Protocol: The L-CNV mouse model and injections were performed as previously described. […] Compounds where indicated were injected a single time immediately post-laser treatment, delivered intravitreally using a 33-gauge needle, in a 0.5 μL volume. […] Vehicle alone (PBS+0.5% (v/v) DMSO) was used as negative control. […] Eyes were numbed with tetracaine solution before the injection, and triple antibiotic ointment was used immediately after the injection to prevent infection. Lipid Profiling
# Mice were sacrificed 3 days post-laser-treatment, eyes were enucleated and retina/choroid layers were immediately separated and stored at −80° C.
# [2] = tested on: choroidal neovascularization; settings: cited from earlier work
# [3] = molecular target: T2, soluble epoxide hydrolase (sEH) (Homo sapiens, UniProt P34913); assay: Recombinant soluble epoxide hydrolase activity assay (fluorogenic substrate PHOME)
# T2 sequence (P34913 1-555): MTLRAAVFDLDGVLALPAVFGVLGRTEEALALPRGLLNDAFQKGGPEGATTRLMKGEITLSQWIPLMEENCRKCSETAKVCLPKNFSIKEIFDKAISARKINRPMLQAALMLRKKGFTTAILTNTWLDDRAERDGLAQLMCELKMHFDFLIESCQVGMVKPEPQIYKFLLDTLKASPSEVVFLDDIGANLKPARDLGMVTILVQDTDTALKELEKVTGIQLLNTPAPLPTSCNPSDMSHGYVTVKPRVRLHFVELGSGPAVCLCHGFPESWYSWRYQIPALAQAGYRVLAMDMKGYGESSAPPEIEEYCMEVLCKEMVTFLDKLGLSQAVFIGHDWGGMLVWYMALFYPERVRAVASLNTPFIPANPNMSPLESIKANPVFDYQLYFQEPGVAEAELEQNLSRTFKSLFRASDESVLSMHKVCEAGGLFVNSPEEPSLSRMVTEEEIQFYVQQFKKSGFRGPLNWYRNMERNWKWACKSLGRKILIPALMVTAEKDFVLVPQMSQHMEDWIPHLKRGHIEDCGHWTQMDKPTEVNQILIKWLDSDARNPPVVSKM
# Protocol: Compounds were dissolved in DMSO (final DMSO concentration=5% (v/v)). Activity was calculated according to:
# % Initial Activity=[(FI15−FI0)/(FT15−FT0)]×100%
# where FI is the background corrected fluorescence signal obtained in the presence of an inhibitor and FT is the background corrected fluorescence signal obtained for the total activity at times 0 and 15 minutes. IC50 values were calculated using GraphPad Prism v.
# human sEH = molecular target: T3, human sEH (Homo sapiens, UniProt P34913); assay: sEH enzyme kinetics (PHOME hydrolysis, Michaelis-Menten/Dixon analysis); assay type: biochemical; settings: for type of inhibition of sEH: Lineweaver-Burk and Dixon plots; for Ki: human sEH, PHOME
# T3 construct: purchased Cayman Chemical
# T3 sequence (P34913 1-555): T2 sequence (P34913 1-555)
# Protocol: Various concentrations of compound dissolved in DMSO (final DMSO concentration=5% (v/v)) and human sEH (60 ng/mL final concentration; Cayman Chemical) in 25 mM bis-Tris-HCl buffer containing 0.1% (w/v) BSA were mixed in a 96 well plate. PHOME at indicated concentrations was added to the wells to initiate the reaction and fluorescence was read with an excitation wavelength of 330 nm and emission wavelength of 465 nm. The standard curve plotted from dilutions of the product, 6-methoxy-2-naphthaldehyde, was used to convert fluorescence reading (RFU/min) to sEH activity (nmol product formed/min). The reaction rate was obtained from the slope of the line from time=5 to 15 minutes for each substrate concentration, and analyzed using GraphPad Prism 7 and SigmaPlot 13.0 to determine Michaelis-Menten kinetic parameters.
# [4] = tested on: mouse choroidal sprouting; assay: Choroidal sprouting assay (ex vivo); assay type: cell-based; settings: 0.1, 1, 10 μM, 48 hours, vs vehicle
# Protocol: Benzisoxazole sEH inhibitor 7 was synthesized according to the method as described in Shen et al., Bioorg. […] Sprouting of endothelial cells from choroidal layers was tested as described in Sulaiman et al., Sci. Rep. […] The final concentration of DMSO in each well was 0.2% (v/v). Images were taken using an EVOS-fl digital microscope (AMG, Mill Creek, WA, USA) and data were analyzed as the sprouting distance in four different directions using ImageJ software v.1.48v (http://imagej.nih.gov/ij/).
# [5] = tested on: choroidal neovascularization; assay: Laser-induced choroidal neovascularization (L-CNV) mouse model, CNV lesion volume; assay type: in vivo; settings: single intravitreal injection, 14 days post-laser, vs vehicle
SMILES,sEH activity in L-CNV eye lysates [1],"ratio of 19,20-EDP to 19,20-DHDP in retina/choroid (sEH)",combination with anti-VEGF antibody in L-CNV ([2]; WO 2017/091473),"effective doses in L-CNV, intravitreal ([2]; previously shown (Sulaiman et al. 2016; WO 2017/091473)) [µM]",IC50 [3] [nM],type of inhibition of sEH (human sEH),Ki (human sEH) [nM],ability of choroidal tissues to form sprouts [4],CNV lesion vascular volume [5],"Ki (human sEH; Dixon plot, n=3) [nM]"
"COc1ccc(CC2COc3cc(OC)c(OC)c(OC)c3C2=O)cc1OC(=O)[C@H](Cc1ccccc1)NC(=O)OC(C)(C)C (stereo partly drawn) [SH-11037, (2S)-2-methoxy-5-((5,6,7-trimethoxy-4-oxochroman-3-yl)methyl)phenyl 2-((tert-butoxycarbonyl)amino)-3-phenylpropanoate]",normalized,partially normalized,synergize,> 1,150,mixed-type inhibitor,1730 ± 450,,,
"FC(F)(F)c1ccc(Nc2noc3c(C(F)(F)F)cccc23)cc1 [compound 7, 7-(trifluoromethyl)-N-(4-(trifluoromethyl)phenyl) benzo[d]isoxazol-3-amine, reference compound]",normalized,,,,9.5,mixed-type inhibitor,,suppressed,dose-dependently suppressed,19.6
